Measurements from article PMC12352620, “Fragment-based discovery of dual ligand pharmacophores for lipid-sensing transcription factors for designed polypharmacology” (RSC Medicinal Chemistry, 2025).

How the values were obtained:
Type in all cases: cell-based
RARα = target: T1, RARα (Homo sapiens, UniProt P10276); assay: Gal4-hybrid reporter gene assay RARα (selectivity); conditions: mean, n ≥ 3, Fig. 8
T1 construct: expressed in transfected cells; host or cells: HEK293T
T1 sequence (P10276 154-462 limits assumed): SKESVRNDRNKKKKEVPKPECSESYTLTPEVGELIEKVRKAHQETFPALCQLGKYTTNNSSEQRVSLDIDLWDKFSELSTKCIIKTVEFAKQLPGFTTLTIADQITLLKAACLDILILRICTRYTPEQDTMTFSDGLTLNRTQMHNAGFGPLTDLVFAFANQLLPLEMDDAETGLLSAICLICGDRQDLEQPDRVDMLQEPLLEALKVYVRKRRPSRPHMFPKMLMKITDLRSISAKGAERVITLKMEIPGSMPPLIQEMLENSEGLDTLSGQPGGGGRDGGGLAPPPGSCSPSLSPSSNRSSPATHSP
Procedure: (§1) NR modulation was determined as described previously[45] in Gal4 hybrid reporter gene assays in HEK293T cells (German Collection of Microorganisms and Cell Culture GmbH, DSMZ) using pFR-Luc (Stratagene, La Jolla, CA, USA; reporter), pRL-SV40 (Promega, Madison, WI, USA; internal control) and the hybrid receptor clones pFA-CMV-hTHRα-LBD,[46] pFA-CMV-hPPARγ-LBD,[47] pFA-CMV-hFXR-LBD,[48] and pFA-CMV-hRXRα-LBD,[49] coding for the hinge region and ligand binding domain of the canonical isoform of the respective NR. Cells were cultured in Dulbecco's modified Eagle's medium (DMEM), high glucose supplemented with 10% fetal calf serum (FCS), sodium pyruvate (1 mM), penicillin (100 U mL^−1), and streptomycin (100 μg mL^−1) at 37 °C and 5% CO2 and seeded in 96-well plates (3 × 10^4 cells per well). After 24 h, medium was changed to Opti-MEM without supplements and cells were transiently transfected using Lipofectamine LTX reagent (Invitrogen, Carlsbad, CA, USA) according to the manufacturer's protocol. Five hours after transfection, cells were incubated with the test compounds in Opti-MEM supplemented with penicillin (100 U mL^−1), streptomycin (100 μg mL^−1) and 0.1% DMSO for 16 h before luciferase activity was measured using the Dual-Glo Luciferase Assay System (Promega) according to the manufacturer's protocol on a Tecan Spark luminometer (Tecan Deutschland GmbH, Crailsheim, Germany). Firefly luminescence was divided by Renilla luminescence and multiplied by 1000 resulting in relative light units (RLU) to normalize for transfection efficiency and cell growth. Fold activation was obtained by dividing the mean RLU of test compound by the mean RLU of the untreated control. All samples were tested in at least three biologically independent experiments in duplicates. For dose–response curve fitting and calculation of EC50 values, the equation “[agonist] vs. response − variable slope (four parameters)” was used in GraphPad Prism (version 7.00, GraphPad Software, La Jolla, CA, USA). For selectivity profiling, the hybrid reporter gene assay was performed with Gal4 fusion receptor plasmids for RARα, PPARα, PPARδ, VDR, CAR and LXRα. The following reference agonists were used: triiodothyronine (1 μM, THR), all-trans retinoic acid (1 μM, RAR), GW7647 (1 μM, PPARα), pioglitazone (1 μM, PPARγ), L165041 (1 μM, PPARδ), calcitriol (1 μM, VDR), CITCO (1 μM, CAR), T0901317 (1 μM, LXR), GW4064 (1 μM, FXR), bexarotene (1 μM, RXR).

VDR = target: T2, VDR (Homo sapiens, UniProt P11473); assay: Gal4-hybrid reporter gene assay VDR (selectivity); conditions: mean, n ≥ 3, Fig. 8
T2 construct: expressed in transfected cells; host or cells: HEK293T
T2 sequence (P11473 97-427 limits assumed): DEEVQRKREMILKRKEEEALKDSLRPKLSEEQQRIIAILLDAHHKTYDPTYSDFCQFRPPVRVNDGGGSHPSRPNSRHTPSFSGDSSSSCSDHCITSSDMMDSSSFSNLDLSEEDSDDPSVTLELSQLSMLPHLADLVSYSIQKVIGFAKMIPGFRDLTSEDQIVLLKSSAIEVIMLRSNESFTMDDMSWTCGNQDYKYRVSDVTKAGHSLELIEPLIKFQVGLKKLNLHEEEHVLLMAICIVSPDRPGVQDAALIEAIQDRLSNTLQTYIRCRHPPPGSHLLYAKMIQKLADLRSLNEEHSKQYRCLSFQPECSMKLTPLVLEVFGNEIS
Procedure: as §1

CAR = assay: Gal4-hybrid reporter gene assay CAR (selectivity); conditions: mean, n ≥ 3, Fig. 8
Procedure: as §1

LXRα = target: T3, LXRα (Homo sapiens, UniProt Q13133); assay: Gal4-hybrid reporter gene assay LXRα (selectivity); conditions: mean, n ≥ 3, Fig. 8
T3 construct: expressed in transfected cells; host or cells: HEK293T
T3 sequence (Q13133 171-447 limits assumed): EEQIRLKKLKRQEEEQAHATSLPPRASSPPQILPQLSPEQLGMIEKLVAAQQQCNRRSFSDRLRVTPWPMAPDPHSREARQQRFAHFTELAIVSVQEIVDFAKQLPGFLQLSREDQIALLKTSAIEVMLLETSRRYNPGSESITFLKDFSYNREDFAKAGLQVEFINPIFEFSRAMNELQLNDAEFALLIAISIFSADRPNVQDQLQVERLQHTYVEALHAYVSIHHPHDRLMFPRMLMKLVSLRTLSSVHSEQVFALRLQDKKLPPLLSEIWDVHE
Procedure: as §1

PPARα = target: T4, PPARα (Homo sapiens, UniProt Q07869); assay: Gal4-hybrid reporter gene assay PPARα (selectivity); conditions: mean, n ≥ 3, Fig. 8
T4 construct: expressed in transfected cells; host or cells: HEK293T
T4 sequence (Q07869 167-468 limits assumed): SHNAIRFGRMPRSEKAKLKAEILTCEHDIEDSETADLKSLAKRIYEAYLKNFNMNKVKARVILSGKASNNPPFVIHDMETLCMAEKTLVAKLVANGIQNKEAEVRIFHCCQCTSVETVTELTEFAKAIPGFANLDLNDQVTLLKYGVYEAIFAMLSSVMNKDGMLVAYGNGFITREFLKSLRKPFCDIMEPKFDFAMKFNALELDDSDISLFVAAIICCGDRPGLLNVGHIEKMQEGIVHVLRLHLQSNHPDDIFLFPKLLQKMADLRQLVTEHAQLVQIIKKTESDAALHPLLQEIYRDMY
Procedure: as §1

PPARγ = target: T5, PPARγ (Homo sapiens, UniProt P37231); assay: Gal4-hybrid reporter gene assay PPARγ; conditions: n ≥ 3; for fold act. PPARγ: mean, Fig. 8; for EC50: HEK293T, Gal4-hybrid reporter, Inactive = tested 1–300 μM; for EC50 / max. fold activation PPARγ: mean ± S.E.M.; for max. fold activation PPARγ: maximum reporter activation vs DMSO (0.1%) treated cells
T5 construct: expressed in transfected cells; host or cells: HEK293T
T5 sequence (P37231 238-503 limits assumed): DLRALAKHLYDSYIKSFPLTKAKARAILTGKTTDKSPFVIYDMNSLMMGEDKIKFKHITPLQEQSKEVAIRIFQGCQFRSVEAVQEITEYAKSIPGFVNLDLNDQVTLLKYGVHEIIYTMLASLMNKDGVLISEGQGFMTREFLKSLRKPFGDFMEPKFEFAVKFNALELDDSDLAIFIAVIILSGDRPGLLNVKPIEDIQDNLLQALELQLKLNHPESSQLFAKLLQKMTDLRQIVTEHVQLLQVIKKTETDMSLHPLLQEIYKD
Procedure: as §1

fold act. RARα (RARα; 30 μM)	fold act. VDR (VDR; 30 μM)	fold act. LXR (LXRα; 30 μM)	fold act. PPARα (PPARα; 30 μM)	fold act. PPARγ (PPARγ; 30 μM)	EC50 (PPARγ)	max. fold activation PPARγ (PPARγ)	fold act. RARα (RARα; 40 μM)	fold act. VDR (VDR; 40 μM)	fold act. LXR (LXRα; 40 μM)	fold act. PPARα (PPARα; 40 μM)	fold act. PPARγ (PPARγ; 40 μM)	fold act. RARα (RARα; 10 μM)	fold act. VDR (VDR; 10 μM)	fold act. LXR (LXRα; 10 μM)	fold act. PPARα (PPARα; 10 μM)	fold act. PPARγ (PPARγ; 10 μM)	Structure (SMILES)	fold act. CAR (CAR; 30 μM)	fold act. CAR (CAR; 40 μM)	fold act. CAR (CAR; 10 μM)
3 fold	2 fold	1 fold	6 fold	32 fold	18 ± 4 µM	(33.4 ± 2.7-fold)	–	–	–	–	–	–	–	–	–	–	O=C(O)/C=C/C(=O)c1ccc(-c2ccccc2)cc1 [4.7, (E)-4-([1,1′-Biphenyl]-4-yl)-4-oxobut-2-enoic acid]	2 fold	–	–
–	–	–	–	–	27 ± 1 µM	(16.7 ± 0.5-fold)	3 fold	3 fold	3 fold	7 fold	18 fold	–	–	–	–	–	O=C(O)/C=C/C(=O)c1ccc2ccccc2c1 [4.8, (E)-4-Oxo-4-(naphthalen-2-yl)but-2-enoic acid]	–	3 fold	–
–	–	–	–	–	3 ± 1 µM	(6.4 ± 0.6-fold)	–	–	–	–	–	6 fold	3 fold	3 fold	5 fold	6 fold	CCOc1ccc(-c2cc(C(=O)O)co2)cc1 [3.1, 5-(4-Ethoxyphenyl)furan-3-carboxylic acid]	–	–	3 fold
1 fold	1 fold	1 fold	1 fold	9 fold	20 ± 5 µM	(13 ± 2-fold)	–	–	–	–	–	–	–	–	–	–	O=C(O)/C=C/C(=O)c1ccc(Cl)cc1Cl [4.6, (E)-4-Oxo-4-(2,4-dichlorophenyl)but-2-enoic acid]	1 fold	–	–
